# Where two headings read alike, the source gives them in different places.
# Assay: TD Phase (Groups 1 and 3): plasma and ocular tissue concentrations and pharmacokinetics of Compound 18 and its metabolite Compound 4 after once daily ocular instillation of Compound 18 nanosuspension for 7 days
# Format: in vivo, New Zealand white rabbits
# Details: for Cmax / Tmax / half-life / AUC(0-t): topical or ocular; for AUC(0-t): read-out: AUC0-8; for Metabolite/parent AUC ratio (Compound 4 vs Compound 18): TD phase
# Excerpt: This example illustrates the procedures and results for the levels of Compound 18 and its metabolite Compound 4 in plasma and ocular tissues of normotensive rabbits following ocular instillation of Compound 18 once daily for 7 consecutive days.
# Twenty five (25) male New Zealand white rabbits were divided into 5 groups of varying amounts of animals per group.
# The Test article, Compound 18 was formulated as a 2% nanosuspension in DI water containing 0.2% PS80 (polyoxyethylenesorbitan, monooleate (Tween 80)) and 0.4% HPMC (hydroxypropylmethylcellulose) at pH 6.77. Referred to herein as “Compound 18 nanosuspension.”
# The study consisted of three groups (Groups 1-3) of 19 male rabbits (NZW) that underwent once daily morning ocular installation (1 eyedrop) for 7 consecutive days (Day 0-6). Groups 4-5 each consisted of 3 male rabbits (NZW) that were not dosed.
# Blood samples (1 mL) were collected from the jugular vein at the intervals set out below for each group. The samples were then inverted several times following collection and held on wet ice until centrifuged. Samples were centrifuged within 60 minutes of collection under refrigeration (set at 5° C. for 10 minutes at 2000 g.
# Group 1 (Pilot Study, terminal blood collection): blood was collected from 3 animals at 1 hour post day 7 dose of Compound 18 nanosuspension.
# Group 3 (TD Phase, terminal blood collection): blood was collected from 3 animals at 0.5 hour, 3 animals at 2 hours, 3 animals at 4 hours, and 3 animals at 8 hours post day 7 dose of Compound 18 nanosuspension.
# (§1) Group 1 (Pilot Study): 3 animals were terminated at 1 hour post Day 7 dose of Compound 18 nanosuspension. Following blood collection and termination, ocular tissues (aqueous humor, vitreous humor, cornea, iris/ciliary body, lens, optic nerve, retina, sclera/choroid, and trabecular meshwork) were collected from each animal and the tissue weights were recorded. Note: sclera and choroid were collected together. Iris and ciliary body were collected together.
# as §1, with “3 (TD Phase):” for “1 (Pilot Study):”, “0.5 hour, 3 animals at 2 hours, 3 animals at 4 hours, and 3 animals at 8 hours” for “1 hour”
# Plasma and tissue samples from treated animals (Groups 1-3) were analyzed for Compound 18 and its metabolite Compound 4 concentrations by LC-MS/MS.
# Pharmacokinetic analysis was conducted using WinNonlin Version 6.2.1 (Pharsight, Mountain View, Calif.), operating as a validated software system. Noncompartmental analysis was conducted using the extravascular administration model for ocular instillation dosing.
# The peak plasma and ocular tissue concentration, time to achieve peak plasma and ocular tissue concentration, half-life, and area under the plasma and ocular tissue concentration-time curve (Cmax, Tmax, T1/2, and AUC) were calculated from the TD phase combined with the pilot study mean animal plasma and ocular tissue concentrations for each sampling time/dose group for Compound 18 and its metabolite Compound 4.
# BA Assay: Quantitation Range 0.05 to 100 ng/mL for Compound 18, 0.15 to 100 ng/mL for Compound 4.
# 3. Pipet 50 μL of each type of pre-spiked ocular tissue samples (AH/VH) for QC samples, 50 μL of incurred aqueous humor, and vitreous humor sample (if applicable) into a 96 well plate.
# Ocular Tissues Homogenate Preparation: Incurred rabbit ocular tissues were weighed in Genogrinder tubes (plastic tubes with small beads) at the time of removal from the animal and stored frozen (<−70° C.) until analysis. The rabbit incurred ocular tissues were thawed on wet ice. […]
# [1] = male, New Zealand white, rabbit, 0.8 mg/kg/day, optic nerve, Day 7, from mean concentrations
# [2] = male, New Zealand white, rabbit, 0.8 mg/kg/day, plasma, Day 7, from mean concentrations
# [3] = male, New Zealand white, rabbit, 0.8 mg/kg/day, retina, Day 7, from mean concentrations
# [4] = male, New Zealand white, rabbit, 0.8 mg/kg/day, sclera/choroid, Day 7, from mean concentrations
# [5] = male, New Zealand white, rabbit, 0.8 mg/kg/day, trabecular meshwork, Day 7, from mean concentrations
# [6] = male, New Zealand white, rabbit, 0.8 mg/kg/day, vitreous humor, Day 7, from mean concentrations
# [7] = male, New Zealand white, rabbit, Aqueous Humor, Day 7, Compound 18 0.8 mg/kg ocular instillation once daily, Groups 1 and 3
# [8] = male, New Zealand white, rabbit, Cornea, Day 7, Compound 18 0.8 mg/kg ocular instillation once daily, Groups 1 and 3
# [9] = male, New Zealand white, rabbit, Iris/Ciliary Body, Day 7, Compound 18 0.8 mg/kg ocular instillation once daily, Groups 1 and 3
# [10] = male, New Zealand white, rabbit, Lens, Day 7, Compound 18 0.8 mg/kg ocular instillation once daily, Groups 1 and 3
# [11] = male, New Zealand white, rabbit, Optic Nerve, Day 7, Compound 18 0.8 mg/kg ocular instillation once daily, Groups 1 and 3
# [12] = male, New Zealand white, rabbit, Plasma, Day 7, Compound 18 0.8 mg/kg ocular instillation once daily, Groups 1 and 3
# [13] = male, New Zealand white, rabbit, Retina, Day 7, Compound 18 0.8 mg/kg ocular instillation once daily, Groups 1 and 3
# [14] = male, New Zealand white, rabbit, Sclera/Choroid, Day 7, Compound 18 0.8 mg/kg ocular instillation once daily, Groups 1 and 3
# [15] = male, New Zealand white, rabbit, Trabecular Meshwork, Day 7, Compound 18 0.8 mg/kg ocular instillation once daily, Groups 1 and 3
# [16] = male, New Zealand white, rabbit, Vitreous Humor, Day 7, Compound 18 0.8 mg/kg ocular instillation once daily, Groups 1 and 3
compound,measurement,setting,value
"CCCc1nn(C)c2c(=O)[nH]c(-c3cc(S(=O)(=O)N4CC(CCCO)C4)ccc3OCC)nc12 [Compound 4, 5-(2-ethoxy-5-((3-(3-hydroxypropyl)azetidin-1-yl)sulfonyl)phenyl)-1-methyl-3-propyl-1,6-dihydro-7H-pyrazolo[4,3-d]pyrimidin-7-one]",Cmax,[1],40.2 ng/g
same,Tmax,[1],1 h
same,half-life,[1],176 min
same,Cmax,[2],1.02 ng/mL
same,Tmax,[2],0.5 h
same,half-life,[2],57.5 min
same,AUC(0-t),[2],1.57 ng·h/mL
same,Cmax,[3],50.9 ng/g
same,Tmax,[3],2 h
same,half-life,[3],116 min
same,Cmax,[4],303 ng/g
same,Tmax,[4],4 h
same,half-life,[4],104 min
same,Cmax,[5],204 ng/g
same,Tmax,[5],1 h
same,half-life,[5],132 min
same,Cmax,[6],2.32 ng/mL
same,Tmax,[6],1 h
same,half-life,[6],103 min
same,AUC(0-t),[6],9.9 ng·h/mL
same,Cmax,[7],124 ng/mL
same,Tmax,[7],1 h
same,half-life,[7],117 min
same,AUC(0-t),[7],314 ng·h/mL
same,Cmax,[8],3600 ng/g
same,Tmax,[8],1 h
same,half-life,[8],158 min
same,Cmax,[9],980 ng/g
same,Tmax,[9],1 h
same,half-life,[9],127 min
same,Cmax,[10],18.1 ng/g
same,Tmax,[10],1 h
same,half-life,[10],135 min
same,Cmax,[11],40.2 ng/g
same,Tmax,[11],1 h
same,half-life,[11],176 min
same,Cmax,[12],1.02 ng/mL
same,Tmax,[12],0.5 h
same,half-life,[12],57.5 min
same,AUC(0-t),[12],1.57 ng·h/mL
same,Cmax,[13],50.9 ng/g
same,Tmax,[13],2 h
same,half-life,[13],116 min
same,Cmax,[14],303 ng/g
same,Tmax,[14],4 h
same,half-life,[14],104 min
same,Cmax,[15],204 ng/g
same,Tmax,[15],1 h
same,half-life,[15],132 min
same,Cmax,[16],2.32 ng/mL
same,Tmax,[16],1 h
same,half-life,[16],103 min
same,AUC(0-t),[16],9.9 ng·h/mL
same,concentration at 8 h,"male, New Zealand white, rabbit, trabecular meshwork, other: ocular instillation, 0.8 mg/kg/day, TD Phase, Group 3, 8 h, Mean, read-out: Final Compound 4 Trabecular Meshwork Conc.",13.9 ng/g
same,AUC0-8,"optic nerve, Day 7, from mean concentrations",159 ng·h/g
same,Metabolite/parent AUC ratio (Compound 4 vs Compound 18),optic nerve,0.133
same,AUC0-8,"retina, Day 7, from mean concentrations",213 ng·h/g
same,Metabolite/parent AUC ratio (Compound 4 vs Compound 18),retina,1.34
same,AUC0-8,"sclera/choroid, Day 7, from mean concentrations",1494 ng·h/g
same,Metabolite/parent AUC ratio (Compound 4 vs Compound 18),sclera/choroid,1.32
same,AUC0-8,"trabecular meshwork, Day 7, from mean concentrations",533 ng·h/g
same,Metabolite/parent AUC ratio (Compound 4 vs Compound 18),trabecular meshwork,18.0
